Source: PMC5666424, “Marine-Derived 2-Aminoimidazolone Alkaloids. Leucettamine B-Related Polyandrocarpamines Inhibit Mammalian and Protozoan DYRK & CLK Kinases” (Marine Drugs, 2017)

Key:
Assay in all cases: KinomeScan
Assay type in all cases: binding
Details in all cases: 1 μM
[1] = target: T1, MAP3K1 (Homo sapiens, UniProt Q13233)
T1 construct: purchased DiscoverX (KINOMEscan)

[2] = target: T2, ABL1(E255K)-phosphorylated (Homo sapiens, UniProt P00519, E255K)
T2 construct: purchased DiscoverX (KINOMEscan)

[3] = target: T3, EPHA8 (Homo sapiens, UniProt P29322)
T3 construct: purchased DiscoverX (KINOMEscan)

[4] = target: T4, CHEK2 (Homo sapiens, UniProt O96017)
T4 construct: purchased DiscoverX (KINOMEscan)

[5] = target: T5, CAMK2A (Homo sapiens, UniProt Q9UQM7)
T5 construct: purchased DiscoverX (KINOMEscan)

[6] = target: T6, STK35 (Homo sapiens, UniProt Q8TDR2)
T6 construct: purchased DiscoverX (KINOMEscan)

[7] = target: T7, HUNK (Homo sapiens, UniProt P57058)
T7 construct: purchased DiscoverX (KINOMEscan)

[8] = target: T8, MLK2 (Homo sapiens, UniProt Q02779)
T8 construct: purchased DiscoverX (KINOMEscan)

[9] = target: T9, SRPK2 (Homo sapiens, UniProt P78362)
T9 construct: purchased DiscoverX (KINOMEscan)

[10] = target: T10, CDKL1 (Homo sapiens, UniProt Q00532)
T10 construct: purchased DiscoverX (KINOMEscan)

[11] = target: T11, FLT3(D835Y) (Homo sapiens, UniProt P36888, D835Y)
T11 construct: purchased DiscoverX (KINOMEscan)

[12] = target: T12, HPK1 (Homo sapiens, UniProt Q92918)
T12 construct: purchased DiscoverX (KINOMEscan)
T12 sequence (Q92918 whole entry): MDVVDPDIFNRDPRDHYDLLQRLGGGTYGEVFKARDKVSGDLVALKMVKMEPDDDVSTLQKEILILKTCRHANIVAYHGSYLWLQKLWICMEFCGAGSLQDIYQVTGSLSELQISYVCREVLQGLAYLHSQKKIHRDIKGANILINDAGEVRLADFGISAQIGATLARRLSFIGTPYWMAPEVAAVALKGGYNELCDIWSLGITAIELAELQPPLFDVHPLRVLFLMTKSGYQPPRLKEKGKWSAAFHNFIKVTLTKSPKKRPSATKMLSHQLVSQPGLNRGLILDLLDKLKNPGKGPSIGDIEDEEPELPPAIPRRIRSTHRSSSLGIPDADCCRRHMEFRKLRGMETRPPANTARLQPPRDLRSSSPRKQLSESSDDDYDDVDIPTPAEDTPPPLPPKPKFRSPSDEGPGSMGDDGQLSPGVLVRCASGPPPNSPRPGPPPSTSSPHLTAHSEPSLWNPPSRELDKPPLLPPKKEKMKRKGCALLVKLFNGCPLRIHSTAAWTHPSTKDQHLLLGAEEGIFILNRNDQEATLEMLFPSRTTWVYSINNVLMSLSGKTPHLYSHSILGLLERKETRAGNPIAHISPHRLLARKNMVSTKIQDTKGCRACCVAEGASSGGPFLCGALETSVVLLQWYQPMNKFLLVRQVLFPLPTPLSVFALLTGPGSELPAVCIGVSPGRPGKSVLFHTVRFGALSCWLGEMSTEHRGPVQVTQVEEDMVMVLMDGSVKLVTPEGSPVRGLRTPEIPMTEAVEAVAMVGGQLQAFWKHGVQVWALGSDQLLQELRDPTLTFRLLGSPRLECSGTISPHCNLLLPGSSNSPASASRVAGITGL

[13] = target: T13, DRAK2 (Homo sapiens, UniProt O94768)
T13 construct: purchased DiscoverX (KINOMEscan)

[14] = target: T14, FER (Homo sapiens, UniProt P16591)
T14 construct: purchased DiscoverX (KINOMEscan)
T14 sequence (P16591 whole entry): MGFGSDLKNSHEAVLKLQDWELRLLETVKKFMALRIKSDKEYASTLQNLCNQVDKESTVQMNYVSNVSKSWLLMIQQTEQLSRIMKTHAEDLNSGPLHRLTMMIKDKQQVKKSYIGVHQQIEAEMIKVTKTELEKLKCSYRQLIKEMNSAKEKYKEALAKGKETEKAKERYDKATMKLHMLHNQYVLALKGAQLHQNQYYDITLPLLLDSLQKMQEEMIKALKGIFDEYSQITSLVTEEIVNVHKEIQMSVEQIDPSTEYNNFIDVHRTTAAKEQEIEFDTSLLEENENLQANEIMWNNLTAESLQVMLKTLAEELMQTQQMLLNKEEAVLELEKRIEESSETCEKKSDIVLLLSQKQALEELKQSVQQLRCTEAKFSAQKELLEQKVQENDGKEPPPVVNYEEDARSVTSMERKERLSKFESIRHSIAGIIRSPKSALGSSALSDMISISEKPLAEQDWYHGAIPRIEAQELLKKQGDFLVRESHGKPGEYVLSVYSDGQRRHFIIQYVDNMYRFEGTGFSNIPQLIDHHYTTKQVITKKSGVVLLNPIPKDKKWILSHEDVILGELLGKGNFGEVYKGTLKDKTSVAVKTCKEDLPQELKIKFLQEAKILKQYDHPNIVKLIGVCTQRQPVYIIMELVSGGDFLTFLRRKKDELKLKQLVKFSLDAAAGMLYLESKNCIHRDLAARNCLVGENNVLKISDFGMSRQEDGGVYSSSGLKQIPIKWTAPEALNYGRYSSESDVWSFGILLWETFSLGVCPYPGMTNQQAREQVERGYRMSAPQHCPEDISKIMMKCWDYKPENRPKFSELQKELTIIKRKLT

[15] = target: T15, JAK3(JH1domain-catalytic) (Homo sapiens, UniProt P52333)
T15 construct: JAK3(JH1domain-catalytic); purchased DiscoverX (KINOMEscan)

[16] = target: T16, TAK1 (Homo sapiens, UniProt O43318)
T16 construct: purchased DiscoverX (KINOMEscan)
T16 sequence (O43318 whole entry): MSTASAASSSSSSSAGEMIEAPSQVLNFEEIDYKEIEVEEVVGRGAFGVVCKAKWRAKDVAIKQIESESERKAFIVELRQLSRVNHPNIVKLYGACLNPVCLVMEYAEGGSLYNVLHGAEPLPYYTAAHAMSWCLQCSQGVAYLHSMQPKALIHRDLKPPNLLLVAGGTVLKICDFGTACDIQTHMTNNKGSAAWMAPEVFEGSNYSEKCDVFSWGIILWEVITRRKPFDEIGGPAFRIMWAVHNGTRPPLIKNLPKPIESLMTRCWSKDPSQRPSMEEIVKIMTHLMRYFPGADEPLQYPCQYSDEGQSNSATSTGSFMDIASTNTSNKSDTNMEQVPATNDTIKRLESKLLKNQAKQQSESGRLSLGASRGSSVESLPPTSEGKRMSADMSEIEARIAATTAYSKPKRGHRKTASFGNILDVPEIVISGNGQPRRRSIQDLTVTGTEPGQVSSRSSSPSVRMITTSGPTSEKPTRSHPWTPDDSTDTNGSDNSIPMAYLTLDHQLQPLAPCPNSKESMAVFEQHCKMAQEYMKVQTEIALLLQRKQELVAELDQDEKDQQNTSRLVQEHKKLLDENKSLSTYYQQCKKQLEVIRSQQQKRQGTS

[17] = target: T17, GAK (Homo sapiens, UniProt O14976)
T17 construct: purchased DiscoverX (KINOMEscan)

[18] = target: T18, MAP3K15 (Homo sapiens, UniProt Q6ZN16)
T18 construct: purchased DiscoverX (KINOMEscan)
T18 sequence (Q6ZN16 whole entry): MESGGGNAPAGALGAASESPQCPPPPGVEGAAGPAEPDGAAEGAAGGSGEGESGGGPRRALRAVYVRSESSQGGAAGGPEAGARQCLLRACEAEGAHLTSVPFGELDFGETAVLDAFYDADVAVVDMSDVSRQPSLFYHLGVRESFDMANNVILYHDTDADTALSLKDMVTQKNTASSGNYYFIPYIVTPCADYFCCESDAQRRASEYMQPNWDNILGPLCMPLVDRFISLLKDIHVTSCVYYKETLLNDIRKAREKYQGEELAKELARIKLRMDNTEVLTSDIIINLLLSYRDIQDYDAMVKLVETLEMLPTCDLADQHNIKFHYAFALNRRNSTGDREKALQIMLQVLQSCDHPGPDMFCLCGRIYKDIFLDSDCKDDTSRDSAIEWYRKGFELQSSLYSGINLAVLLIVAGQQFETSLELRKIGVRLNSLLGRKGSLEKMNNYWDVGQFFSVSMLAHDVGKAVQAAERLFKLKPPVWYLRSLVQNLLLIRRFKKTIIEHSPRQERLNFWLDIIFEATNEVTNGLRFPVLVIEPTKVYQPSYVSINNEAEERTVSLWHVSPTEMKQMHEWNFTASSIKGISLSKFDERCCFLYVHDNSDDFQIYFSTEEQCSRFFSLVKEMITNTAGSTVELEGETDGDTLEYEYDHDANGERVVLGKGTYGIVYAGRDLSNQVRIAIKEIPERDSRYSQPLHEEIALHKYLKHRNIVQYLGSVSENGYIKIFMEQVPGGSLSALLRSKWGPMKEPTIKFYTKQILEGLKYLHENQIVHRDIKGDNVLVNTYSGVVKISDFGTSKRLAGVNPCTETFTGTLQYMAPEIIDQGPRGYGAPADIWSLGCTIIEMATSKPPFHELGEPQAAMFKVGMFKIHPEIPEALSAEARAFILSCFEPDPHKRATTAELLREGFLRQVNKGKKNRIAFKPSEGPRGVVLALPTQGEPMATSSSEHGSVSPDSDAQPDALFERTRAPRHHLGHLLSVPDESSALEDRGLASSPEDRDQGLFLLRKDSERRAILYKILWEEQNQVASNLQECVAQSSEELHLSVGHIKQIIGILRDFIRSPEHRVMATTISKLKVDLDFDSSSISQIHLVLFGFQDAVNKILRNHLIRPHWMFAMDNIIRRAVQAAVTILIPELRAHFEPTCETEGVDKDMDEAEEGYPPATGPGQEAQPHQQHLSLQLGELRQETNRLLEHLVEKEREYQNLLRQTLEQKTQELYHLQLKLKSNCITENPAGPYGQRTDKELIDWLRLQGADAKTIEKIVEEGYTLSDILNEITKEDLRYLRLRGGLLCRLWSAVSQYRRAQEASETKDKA

[19] = target: T19, CSNK1D (Homo sapiens, UniProt P48730)
T19 construct: purchased DiscoverX (KINOMEscan)

[20] = target: T20, CASK (Homo sapiens, UniProt O14936)
T20 construct: purchased DiscoverX (KINOMEscan)

[21] = target: T21, SNARK (Homo sapiens, UniProt Q9H093)
T21 construct: purchased DiscoverX (KINOMEscan)

[22] = target: T22, KIT(D816H) (Homo sapiens, UniProt P10721, D816H)
T22 construct: purchased DiscoverX (KINOMEscan)

[23] = target: T23, SNRK (Homo sapiens, UniProt Q9NRH2)
T23 construct: purchased DiscoverX (KINOMEscan)

[24] = target: T24, TRPM6 (Homo sapiens, UniProt Q9BX84)
T24 construct: purchased DiscoverX (KINOMEscan)

[25] = target: T25, NDR2 (Homo sapiens, UniProt Q9Y2H1)
T25 construct: purchased DiscoverX (KINOMEscan)

[26] = target: DYRK1B (Homo sapiens, UniProt Q9Y463)
[27] = target: T26, AMPK-alpha1 (Homo sapiens, UniProt Q13131)
T26 construct: purchased DiscoverX (KINOMEscan)

[28] = target: T27, TNK2 (Homo sapiens, UniProt Q07912)
T27 construct: purchased DiscoverX (KINOMEscan)

[29] = target: T28, DDR1 (Homo sapiens, UniProt Q08345)
T28 construct: purchased DiscoverX (KINOMEscan)
T28 sequence (Q08345 19-913): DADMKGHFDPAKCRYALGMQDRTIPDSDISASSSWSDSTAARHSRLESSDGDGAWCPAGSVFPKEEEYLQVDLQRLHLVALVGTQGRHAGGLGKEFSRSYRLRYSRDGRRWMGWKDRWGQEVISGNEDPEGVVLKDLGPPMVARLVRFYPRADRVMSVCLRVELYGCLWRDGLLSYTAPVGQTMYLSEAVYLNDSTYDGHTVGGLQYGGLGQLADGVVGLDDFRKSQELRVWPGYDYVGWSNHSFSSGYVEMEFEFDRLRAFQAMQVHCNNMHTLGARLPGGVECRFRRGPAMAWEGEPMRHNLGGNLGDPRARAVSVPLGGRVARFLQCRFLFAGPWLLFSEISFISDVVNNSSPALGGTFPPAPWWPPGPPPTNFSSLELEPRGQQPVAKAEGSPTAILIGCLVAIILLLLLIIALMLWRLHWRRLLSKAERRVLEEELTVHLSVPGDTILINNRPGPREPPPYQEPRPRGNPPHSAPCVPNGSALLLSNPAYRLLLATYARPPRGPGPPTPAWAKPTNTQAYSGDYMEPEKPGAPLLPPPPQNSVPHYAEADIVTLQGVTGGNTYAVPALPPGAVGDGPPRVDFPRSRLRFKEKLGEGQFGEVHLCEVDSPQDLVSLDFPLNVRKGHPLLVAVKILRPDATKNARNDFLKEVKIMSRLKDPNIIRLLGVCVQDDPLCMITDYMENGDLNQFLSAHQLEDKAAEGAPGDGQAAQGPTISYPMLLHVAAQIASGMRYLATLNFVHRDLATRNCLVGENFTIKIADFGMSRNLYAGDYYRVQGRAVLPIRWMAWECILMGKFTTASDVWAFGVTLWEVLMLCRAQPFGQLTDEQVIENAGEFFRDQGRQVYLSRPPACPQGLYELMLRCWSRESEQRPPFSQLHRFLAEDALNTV

[30] = target: T29, EPHB3 (Homo sapiens, UniProt P54753)
T29 construct: purchased DiscoverX (KINOMEscan)

[31] = target: T30, FGFR3 (Homo sapiens, UniProt P22607)
T30 construct: purchased DiscoverX (KINOMEscan)

[32] = target: T31, CDK2 (Homo sapiens, UniProt P24941)
T31 construct: purchased DiscoverX (KINOMEscan)

[33] = target: T32, CAMKK2 (Homo sapiens, UniProt Q96RR4)
T32 construct: purchased DiscoverX (KINOMEscan)

[34] = target: T33, CDK5 (Homo sapiens, UniProt Q00535)
T33 construct: purchased DiscoverX (KINOMEscan)

[35] = target: T34, ADCK4 (Homo sapiens, UniProt Q96D53)
T34 construct: purchased DiscoverX (KINOMEscan)
T34 sequence (Q96D53 whole entry): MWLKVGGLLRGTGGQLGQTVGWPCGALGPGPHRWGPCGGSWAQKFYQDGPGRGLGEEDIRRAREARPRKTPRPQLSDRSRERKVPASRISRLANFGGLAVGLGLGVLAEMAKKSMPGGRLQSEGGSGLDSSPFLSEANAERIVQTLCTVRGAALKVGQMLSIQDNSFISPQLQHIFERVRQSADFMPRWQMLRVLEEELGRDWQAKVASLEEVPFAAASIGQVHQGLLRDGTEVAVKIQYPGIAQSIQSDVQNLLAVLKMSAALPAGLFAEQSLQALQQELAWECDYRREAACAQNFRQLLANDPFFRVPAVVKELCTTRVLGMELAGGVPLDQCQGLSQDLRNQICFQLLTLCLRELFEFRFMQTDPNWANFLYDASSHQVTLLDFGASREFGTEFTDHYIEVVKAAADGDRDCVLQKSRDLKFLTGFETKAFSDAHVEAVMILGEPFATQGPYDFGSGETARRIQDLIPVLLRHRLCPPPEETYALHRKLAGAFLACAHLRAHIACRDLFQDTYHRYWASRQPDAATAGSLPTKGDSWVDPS

[36] = target: T35, ERK2 (Homo sapiens, UniProt P28482)
T35 construct: purchased DiscoverX (KINOMEscan)

[37] = target: T36, CSF1R (Homo sapiens, UniProt P07333)
T36 construct: purchased DiscoverX (KINOMEscan)

## COc1cc(/C=C2\N=C(N)NC2=O)ccc1O [Polyandrocarpamine A]
[1]
  Score: 100
[2]
  Score: 100
[3]
  Score: 100
[4]
  Score: 100
[5]
  Score: 98
[6]
  Score: 95
[7]
  Score: 100
[8]
  Score: 100
[9]
  Score: 100
[10]
  Score: 100
[11]
  Score: 100
[12]
  Score: 100
[13]
  Score: 51
[14]
  Score: 100
[15]
  Score: 84
[16]
  Score: 100
[17]
  Score: 100
[18]
  Score: 100
[19]
  Score: 70
[20]
  Score: 100
[21]
  Score: 100
[22]
  Score: 100
[23]
  Score: 100
[24]
  Score: 100
[25]
  Score: 91
[26]
  Score: 25
[27]
  Score: 100
[28]
  Score: 100
[29]
  Score: 100
[30]
  Score: 100
[31]
  Score: 100
[32]
  Score: 91
[33]
  Score: 94
[34]
  Score: 100
[35]
  Score: 98
[36]
  Score: 100
[37]
  Score: 87
